Test results published in patent US10266549B2, “ULK1 inhibitors and methods using same” (SALK INSTITUTE FOR BIOLOGICAL STUDIES, priority 2014, dated 2019).

Experiments:
ULK1 = assay: phosphorylation of ULK1 substrates (Vps34 Ser249, Beclin Ser15) in HEK293T cells co-expressing wild-type ULK1; format: cell-based, human
Procedure: At 24-hr post-transfection, cells were treated with a panel of putative ULK1 competitive inhibitors in a dose-response manner (1, 10, 50 μM). Cellular lysates were isolated after 1 hr of treatment and immunoblotted with the indicated antibodies. Representative results for compound 14 are shown.
FIG. 7C: HEK293T cells were transfected with WT or KI ULK1 and WT Vps34 (left) or WT Flag-tagged Beclin1 (WT Beclin1; right). At 24-hr post-transfection, cells were treated with compound 14 (10 μM) or DMSO. Cellular lysates were isolated after 1 hr of treatment and immunoblotted with the indicated antibodies.
For transient expression in HEK293T cells were transfected with 2 ug each DNA plasmid per 6 cm dish using Lipofectamine 2000 (Invitrogen) following the manufacturer's protocol. Cells were harvested 24 hours after transfection and rinsed once with ice-cold PBS and lysed in boiling SDS lysis buffer (10 mM Tris pH7.5, 100 mM NaCl, 1% SDS). After trituration, lysates were equilibrated for protein levels using the BCA method (Pierce) and resolved on 8 to 15% SDS-PAGE Phos-Tag™ gels according to the manufacturer's instructions. Briefly, Phos-Tag™ AAL-107 (HARD #304-93521) was added to SDS-PAGE acryamide mixture at a final concentration of 50 μM along with MnCl2 at a final concentration of 100 μM. […]

JAK2 = JAK2 (Homo sapiens (Human), UniProt O60674); assay: classic in vitro kinase assay, dose-response (Reaction Biology); format: biochemical; settings: dose-response curves
Sequence of JAK2 (O60674 whole entry): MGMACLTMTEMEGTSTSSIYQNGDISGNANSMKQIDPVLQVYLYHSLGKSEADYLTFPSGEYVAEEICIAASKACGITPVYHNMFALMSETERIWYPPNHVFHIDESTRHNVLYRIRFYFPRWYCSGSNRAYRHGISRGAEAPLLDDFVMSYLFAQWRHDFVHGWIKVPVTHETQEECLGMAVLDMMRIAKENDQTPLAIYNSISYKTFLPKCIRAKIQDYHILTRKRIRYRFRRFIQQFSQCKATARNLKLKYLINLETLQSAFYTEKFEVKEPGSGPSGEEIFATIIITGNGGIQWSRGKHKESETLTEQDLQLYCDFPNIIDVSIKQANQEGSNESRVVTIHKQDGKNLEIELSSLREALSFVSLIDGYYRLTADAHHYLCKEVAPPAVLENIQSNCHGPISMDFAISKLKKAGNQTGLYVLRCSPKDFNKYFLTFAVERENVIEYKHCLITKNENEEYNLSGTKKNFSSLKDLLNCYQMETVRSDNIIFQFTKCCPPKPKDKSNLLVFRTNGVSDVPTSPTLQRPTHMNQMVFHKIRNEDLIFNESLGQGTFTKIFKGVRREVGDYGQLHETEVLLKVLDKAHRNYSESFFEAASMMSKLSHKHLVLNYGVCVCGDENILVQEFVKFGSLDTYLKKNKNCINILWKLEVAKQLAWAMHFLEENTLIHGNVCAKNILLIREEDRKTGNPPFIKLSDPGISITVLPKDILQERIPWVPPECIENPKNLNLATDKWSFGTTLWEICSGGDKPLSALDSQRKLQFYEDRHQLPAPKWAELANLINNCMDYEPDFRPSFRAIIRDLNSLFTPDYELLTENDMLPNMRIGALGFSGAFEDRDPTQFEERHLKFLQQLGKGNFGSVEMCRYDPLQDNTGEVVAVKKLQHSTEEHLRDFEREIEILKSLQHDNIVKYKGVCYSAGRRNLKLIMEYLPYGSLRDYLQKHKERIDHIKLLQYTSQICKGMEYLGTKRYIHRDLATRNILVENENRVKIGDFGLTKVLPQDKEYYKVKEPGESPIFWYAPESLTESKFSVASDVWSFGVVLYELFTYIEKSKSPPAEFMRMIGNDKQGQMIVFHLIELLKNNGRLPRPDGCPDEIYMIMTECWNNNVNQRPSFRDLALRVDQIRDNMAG
Procedure: (§1) Kinase inhibitor specificity profiling assays were first carried out using DiscoveRx KINOMEscan competition binding assay against a panel of 456 kinases (www dot discoverx dot corn) using 1 μM compound 14.
(§2) To use a more well-established measure of the selectivity of compound 14 against its top binding kinases, we examined dose-response curves for its inhibition of these kinases in a classic in vitro kinase assays. Here we tested the ten kinases most suppressed by compound 14 by the ATP binding assay. […] It is important to note that even though compound 14 inhibits these 4 kinase quite equivalently across all of the different assays we have examined, this is still greater selectivity than all but a handful of widely used ATP-competitive kinases inhibitors widely used in clinical oncology today. We next examined the ability of compound 14 to suppress signaling downstream of various kinases in cells in culture. […] Similarly, compound 14 inhibited FAK and AuroraA comparably to ULK1 in MEFs as well.

AuroraA kinase = AuroraA kinase (Homo sapiens (Human), UniProt O14965); assay: as above; format: biochemical; settings: dose-response curves
Sequence of AuroraA kinase (O14965 whole entry): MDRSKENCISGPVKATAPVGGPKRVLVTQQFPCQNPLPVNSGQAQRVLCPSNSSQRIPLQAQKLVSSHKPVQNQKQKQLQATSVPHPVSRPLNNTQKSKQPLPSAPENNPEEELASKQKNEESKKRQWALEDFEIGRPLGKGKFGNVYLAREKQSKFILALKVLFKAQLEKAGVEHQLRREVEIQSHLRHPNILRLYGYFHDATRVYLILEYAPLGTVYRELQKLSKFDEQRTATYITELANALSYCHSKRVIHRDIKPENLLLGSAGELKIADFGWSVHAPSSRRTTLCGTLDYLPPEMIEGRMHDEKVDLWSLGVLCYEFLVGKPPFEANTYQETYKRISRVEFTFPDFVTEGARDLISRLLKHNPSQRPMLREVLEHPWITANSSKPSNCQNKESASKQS
Procedure: as §1, §2

FAK = FAK (Homo sapiens (Human), UniProt Q05397); assay: as above; format: biochemical; settings: dose-response curves
Sequence of FAK (Q05397 whole entry): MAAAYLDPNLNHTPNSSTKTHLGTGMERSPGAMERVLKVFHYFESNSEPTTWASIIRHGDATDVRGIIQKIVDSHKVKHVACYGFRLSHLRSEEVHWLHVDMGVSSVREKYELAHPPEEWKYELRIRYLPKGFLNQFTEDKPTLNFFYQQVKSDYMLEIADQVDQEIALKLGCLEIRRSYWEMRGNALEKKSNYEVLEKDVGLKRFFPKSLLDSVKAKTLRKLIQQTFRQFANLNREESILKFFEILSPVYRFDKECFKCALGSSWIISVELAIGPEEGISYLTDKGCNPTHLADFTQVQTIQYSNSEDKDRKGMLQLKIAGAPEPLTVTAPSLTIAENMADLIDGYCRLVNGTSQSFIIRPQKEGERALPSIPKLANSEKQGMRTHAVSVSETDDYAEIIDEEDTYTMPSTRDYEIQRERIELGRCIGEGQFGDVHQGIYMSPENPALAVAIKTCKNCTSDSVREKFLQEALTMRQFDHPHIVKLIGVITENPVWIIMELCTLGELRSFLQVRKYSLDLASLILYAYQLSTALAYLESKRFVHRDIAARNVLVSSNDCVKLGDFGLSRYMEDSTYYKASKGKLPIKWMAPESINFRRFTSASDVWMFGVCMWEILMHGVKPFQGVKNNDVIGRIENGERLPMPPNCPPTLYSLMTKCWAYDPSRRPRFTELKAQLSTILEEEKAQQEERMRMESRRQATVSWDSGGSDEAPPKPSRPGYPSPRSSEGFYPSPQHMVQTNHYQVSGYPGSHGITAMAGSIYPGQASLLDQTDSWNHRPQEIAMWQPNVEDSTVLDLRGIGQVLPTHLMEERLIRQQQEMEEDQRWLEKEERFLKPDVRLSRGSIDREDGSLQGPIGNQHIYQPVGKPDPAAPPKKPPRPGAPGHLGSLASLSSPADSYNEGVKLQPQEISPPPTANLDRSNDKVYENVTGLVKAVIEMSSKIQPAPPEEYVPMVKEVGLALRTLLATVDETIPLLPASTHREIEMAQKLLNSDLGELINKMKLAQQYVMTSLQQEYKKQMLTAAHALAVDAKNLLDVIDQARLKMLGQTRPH
Procedure: as §1, §2

panel of 456 kinases = assay: DiscoveRx KINOMEscan competition binding assay; parameters: species or system human
Procedure: FIG. 7E: (top) The kinase selectivity profile for compound 14 was determined using the DiscoveRx KINOMEscan profiling service. Briefly, compound 14 was screened at a 1-μM dose for its ability to impair binding of a panel of 456 kinases to substrate in an in vitro binding assay. Scores for the primary screen hits are reported as a percent of the DMSO control (% Control). Lower scores reflect stronger inhibitory effects of compound 14 on the target kinase. Compound 14 was very selective, only inhibiting 8 kinases >95% and 19 kinases >90% when tested at 10 μM. (bottom) In vitro kinase assays were performed for selected kinases. These assays were performed in the presence of compound 14 in a dose-response manner to identify the IC50 value for compound 14 for each of these individual kinases. […] Of the remaining kinases, those kinases which IC50 value was less than what was identified from ULK2 are highlighted in brown.
as §1
We next examined the specificity of compound 14 using the DiscoveRx KINOMEscan panel of 456 purified human kinases and subsequent competition binding assay.

[1] = panel of 456 kinases, tested at 10 μM as printed (method says 1 μM)

CNC(=O)c1ccccc1Nc1nc(Nc2cc(OC)c(OC)c(OC)c2)ncc1Br [compound 14, 2-(5-bromo-2-(3,4,5-trimethoxyphenylamino)pyrimidin-4-ylamino)-N-methylbenzamide]
inhibition of Beclin Ser15 and Vps34 Ser249 phosphorylation (ULK1; 10 μM, 1 hr): inhibited Beclin Ser15 and Vps34 Ser249 to comparable extents | concentration inhibiting P-Vps34 on overexpressed Vps34 (ULK1; WT ULK1 + Flag-Vps34, 1 hr treatment): ~5 µM | inhibition relative to ULK1 (JAK2): equivalently inhibited | inhibition relative to ULK1 (AuroraA kinase): equivalently inhibited | inhibition relative to ULK1 (FAK): equivalently inhibited | S(35) selectivity index (panel of 456 kinases; (number of non-mutant kinases with % Ctrl <35)/(number of non-mutant kinases tested)): 0.123 | number of kinases inhibited >90% (panel of 456 kinases; [1]): 19 | number of kinases inhibited >95% (panel of 456 kinases; [1]): 8
